Values of other authors, collected in patent US8431577B2, “Crystalline form of eszopiclone, composition, preparation and uses thereof” (Tianjin Tasly Group Co., Ltd., priority 2008, dated 2013).

Conditions: comparative acute toxicity research; cited from earlier work

SMILES: CN1CCN(C(=O)O[C@H]2c3nccnc3C(=O)N2c2ccc(Cl)cn2)CC1 [S-zopiclone, (+)-(S)-(4-methylpiperazine-1-carboxylate)(6-(5-chloropyridinyl-2-yl)-7-carbonyl-6,7-dihydro-5-H-pyrrolo[3,4-b]pyrazin-5-yl ester)]
- acute toxicity compared with racemic zopiclone: low toxicity than that of the racemic zopiclone
